Where “and” joins values, the source holds several entries; their conditions need not be identical. Identical values can stand only once. Like-named read-outs stand apart in the source and are kept apart here.
Legend:
[1] = tested on: A549 cells (non-small cell lung carcinoma); assay: MTS cytotoxicity assay, A549; assay type: cell-based, human; conditions: read-out: IC50 (mean ± SD)
Protocol: (§1) Human lung cancer (A549), human normal lung epithelial cell line (BEAS-2B), human stomach cancer (SGC-7901) and human ovarian cancer (SK-OV-3) were purchased from ATCC, whereas cisplatin-resistant SK-OV-3 cells (SK-OV-3/DDP) were kindly provided by Chinese Academy of Medical Sciences (Beijing, China). Cells were grown in DMEM or RPMI-1640 medium (Hyclone, USA) containing 10% fetal bovine serum. Both media were supplemented with 100 units/ml of penicillin and 100 μg/ml of streptomycin. Cells were maintained at 37°C in a humidified incubator with an atmosphere of 5% CO2.
(§2) Cytotoxicity was determined by performing MTS assay. Briefly, 100 μl of cells suspension were seeded in 96-well cell culture plates and allowed to adhere overnight. The cells were treated with drugs for 48 hours, and then 20 μl of CellTiter 96® AQueous One Solution Reagent (Promega, Madison, USA) was added and the cells were further incubated at 37°C for 1–2 h. Cell viability was measured by reading the absorbance at a wavelength of 490 nm. Concentrations of 50% inhibition of growth (IC50) were calculated on the basis of the relative survival curve.

[2] = tested on: SGC-7901 cells (gastric carcinoma); assay: MTS cytotoxicity assay, SGC-7901; assay type: cell-based, human; conditions: read-out: IC50 (mean ± SD)
Protocol: as §1, §2

[3] = tested on: SK-OV-3 cells (ovarian carcinoma); assay: MTS cytotoxicity assay, SK-OV-3; assay type: cell-based, human; conditions: read-out: IC50 (mean ± SD)
Protocol: as §1, §2

[4] = tested on: BEAS-2B normal lung epithelial cells; assay: MTS cytotoxicity assay, BEAS-2B; assay type: cell-based, human; conditions: read-out: IC50 (mean ± SD)
Protocol: as §1, §2

[5] = tested on: cisplatin-resistant SK-OV-3 cells (SK-OV-3/DDP); assay: MTS cytotoxicity assay, cisplatin-resistant SK-OV-3/DDP; assay type: cell-based, human; conditions: for IC50: SK-OV-3/DDP cisplatin-resistant, MTS, t = 48 h, n = 3, read-out: IC50 (mean ± SD); for Resistance Index: ratio of IC50 value of resistant cells (SK-OV-3/DDP) to that of sensitive cells (SK-OV-3)
Protocol: Cross-resistance profile of the complexes 1a and 2a was evaluated. Resistance Index was defined as the ratio of IC50 value of resistant cells to that of sensitive cells. SK-OV-3 and cisplatin-resistant SK-OV-3 cells (SK-OV-3/DDP) cell lines were chosen for MTS assay because drug resistance frequently occurred in the chemotherapy of ovarian tumors. […] The results may be attributed to the synergistic effect between the platinum pharmacophores and DCA released by the hydrolysis of 1a and 2a in the cells.
as §1, §2

A549 cells = assay: Cell apoptosis assay (Annexin-V-FITC/Propidium iodide, flow cytometry), A549; assay type: cell-based, human; conditions: t = 24 h, n = 3
Protocol: (§3) Human lung cancer (A549), human normal lung epithelial cell line (BEAS-2B), human stomach cancer (SGC-7901) and human ovarian cancer (SK-OV-3) were purchased from ATCC, whereas cisplatin-resistant SK-OV-3 cells (SK-OV-3/DDP) were kindly provided by Chinese Academy of Medical Sciences (Beijing, China). Cells were grown in DMEM or RPMI-1640 medium (Hyclone, USA) containing 10% fetal bovine serum. Both media were supplemented with 100 units/ml of penicillin and 100 μg/ml of streptomycin. Cells were maintained at 37°C in a humidified incubator with an atmosphere of 5% CO2. To analyze the cells for apoptosis, cells were plated and allowed to adhere overnight. Cells were treated with drugs indicated for 24 hours and then analyzed for apoptosis using Annexin-V-FITC/Propidium iodide staining. Cells were trypsinized, pelleted, washed in PBS, and resuspended in 1×binding buffer containing Annexin-V-FITC and propidium iodide (BD Pharmingen) according to the manufacturer's instructions. The samples were analyzed for the apoptosis using a FACSCalibur flow cytometer (BD Biosciences, Franklin Lakes, NJ).

[6] = tested on: BEAS-2B normal human lung bronchial epithelial cells; assay: Cell apoptosis assay (Annexin-V-FITC/Propidium iodide, flow cytometry), BEAS-2B; assay type: cell-based; conditions: t = 24 h, n = 3
Protocol: as §3

Hydrolysis rate by HPLC = assay type: physicochemical; conditions: 1:10 (v/v) solution of water and methanol, within 4 hours
Protocol: Both complexes were nearly insoluble in water or ethanol (≈0.1 mg/ml) and slightly soluble in methanol and DMSO, but soluble in polyethyleneglycol 400 which was chosen as the solvent to make the stock solutions of the complexes for the following biological testing. The hydrolysis rate of the complexes in 1:10 (v/v) solution of water and methanol determined by HPLC was less than 2% within 4 hours and the hydrolysis products were, as expected, dichloroacetate and 1b for complex 1a, or 2b for complex 2a. Complexes 1b and 2b were also synthesized for comparison in HPLC measurements as well as in biological tests. As 1b and 2b were found very soluble in water (>25 mg/ml) compared with 1a or 2a, another synthetic reaction was employed to produce the desired complexes. Accordingly complexes 1b and 2b also have two positional isomeric forms. All the complexes used in our studies were, in fact, a mixture of two isomeric forms.
An Agilent Zorbax SB-C18 column (4.6 × 250 mm, 5 μm) was used with CH3OH/H2O as the mobile phase. The flow rate was 1.0 ml/min, and the column temperature is 40°C. The detection wavelength was 238 nm and the injection volume was 10 μl.

Solubility in solvents = assay type: physicochemical
[7] = SK-OV-3, MTS, t = 48 h, n = 3, Table 1
[8] = BEAS-2B normal cells, MTS, t = 48 h, n = 3
[9] = SK-OV-3 (sensitive), MTS, t = 48 h, n = 3, Table 3 cross-resistance experiment

Row | SMILES | IC50 ([1]; A549, MTS, t = 48 h, n = 3) | IC50 ([2]; SGC-7901, MTS, t = 48 h, n = 3) | IC50 [3, 7] | IC50 [4, 8] | IC50 [3, 9] | IC50 [5] | Resistance Index [5] | other results
1 | N.N.O=C([O-])C1(C(=O)[O-])CCC1.[Pt+2] [Carboplatin, carboplatin, reference compound] | 141 ± 11.3 µM | 127 ± 11.8 µM | 65.3 ± 3.55 µM | 74.4 ± 2.51 µM |  |  |  | 
2 | N.N.[Cl][Pt][Cl] [Cisplatin, cisplatin, reference compound] | 14.8 ± 1.02 µM | 13.6 ± 1.03 µM | 5.04 ± 0.25 µM | 11.7 ± 0.51 µM | 5.15 ± 1.38 µM | 19.2 ± 0.94 µM | ≈4 | Apoptosis, % (mean ± SD) (A549 cells; A549, 12.5 μM): 20.09 ± 3.06%; Apoptosis, % (mean ± SD) (A549 cells; A549, 25 μM): 32.84 ± 5.48%; Apoptosis, % (mean ± SD) (A549 cells; A549, 50 μM): 50.51 ± 6.42%; Apoptosis, % (mean ± SD) (A549 cells; A549, 100 μM): 56.28 ± 6.91%; Apoptosis, % (mean ± SD) ([6]; 12.5 μM): 2.64 ± 1.43%; Apoptosis, % (mean ± SD) ([6]; 25 μM): 5.86 ± 1.30%; Apoptosis, % (mean ± SD) ([6]; 50 μM): 38.93 ± 5.26%; Apoptosis, % (mean ± SD) ([6]; 100 μM): 42.80 ± 3.40%
3 | N.NC1CCCC1.O=C(OC1CC2(C1)C(=O)[O][Pt][O]C2=O)C(Cl)Cl [Complex 1a] | 17.1 ± 1.55 µM | 21.9 ± 1.96 µM | 18.1 ± 0.85 µM | 61.5 ± 1.5 µM | 17.8 ± 3.97 µM | 18.1 ± 2.41 µM | ≈1 | Apoptosis, % (mean ± SD) (A549 cells; A549, 12.5 μM): 18.93% and 18.93 ± 3.83%; Apoptosis, % (mean ± SD) (A549 cells; A549, 25 μM): 26.76 ± 2.33%; Apoptosis, % (mean ± SD) (A549 cells; A549, 50 μM): 40.93 ± 9.66%; Apoptosis, % (mean ± SD) (A549 cells; A549, 100 μM): 67.46 ± 8.06%; Apoptosis, % (mean ± SD) ([6]; 12.5 μM): 0.71 ± 0.45%; Apoptosis, % (mean ± SD) ([6]; 25 μM): 1.24 ± 1.73%; Apoptosis, % (mean ± SD) ([6]; 50 μM): 1.27 ± 0.92%; Apoptosis, % (mean ± SD) ([6]; 100 μM): 2.88% and 2.88 ± 2.15%; Hydrolysis rate (Hydrolysis rate by HPLC): less than 2%
4 | N.NC1CCCC1.O=C1[O][Pt][O]C(=O)C12CC(O)C2 [Complex 1b] | 61.5 ± 7.98 µM | 56.2 ± 4.88 µM | 74.2 ± 2.64 µM | 79.9 ± 2.57 µM |  |  |  | Solubility in water (Solubility in solvents): > 25 mg/mL
5 | N.NC1CCCCC1.O=C(OC1CC2(C1)C(=O)[O][Pt][O]C2=O)C(Cl)Cl [Complex 2a] | 15.3 ± 1.12 µM | 16.7 ± 0.82 µM | 11.5 ± 0.91 µM | 52.1 ± 3.12 µM | 10.1 ± 2.38 µM | 11.1 ± 0.63 µM | ≈1 | Hydrolysis rate (Hydrolysis rate by HPLC): less than 2%
6 | N.NC1CCCCC1.O=C1[O][Pt][O]C(=O)C12CC(O)C2 [Complex 2b] | 71.5 ± 5.21 µM | 69.5 ± 2.31 µM | 78.2 ± 1.85 µM | 75 ± 4.83 µM |  |  |  | Solubility in water (Solubility in solvents): > 25 mg/mL
7 | O=C(O)C(Cl)Cl [DCA, Dichloroacetate] |  |  |  |  |  |  |  | IC50 ([1]; Homo sapiens, A549, 48 h): > 200 µM; IC50 ([2]; Homo sapiens, SGC-7901, 48 h): > 200 µM; IC50 ([3]; Homo sapiens, SK-OV-3, 48 h): > 200 µM; IC50 ([4]; Homo sapiens, BEAS-2B, 48 h): > 200 µM

— paper PMC3746205, “Two mixed-NH3/amine platinum (II) anticancer complexes featuring a dichloroacetate moiety in the leaving group” (Scientific Reports, 2013)
